≈ marks a conversion by molar mass, not a printed value.
Key:
[1] = system: red blood cells from laboratory mice; assay: Membrane-protective activity: H2O2-induced hemolysis of erythrocytes; format: cell-based; settings: 1 μM, 1–5 h
Method: The membrane-protective properties of the compounds were evaluated in the model of oxidative hemolysis of erythrocytes at a concentration of 1 μM in order to avoid the effect of hemolytic activity.
(§1) To evaluate the erythrotoxicity, antioxidant and membrane-protective activity of the compounds, we used 0.5% (v/v) suspension of red blood cells from laboratory mice in phosphate-buffered saline (PBS, pH 7.4). The test substances were previously dissolved in ethanol. Erythrotoxicity (hemolytic activity) was evaluated by the degree of hemolysis of red blood cells 1–5 h after the introduction of solutions of the compounds. Membrane-protective and antioxidant activity was determined by the degree of inhibition of H2O2-induced hemolysis. For this purpose, 30 min after the erythrocyte suspension was added to the solutions of the test compounds, hemolysis was initiated with a solution of hydrogen peroxide (0.006%). Then, the reaction mixture was incubated in a thermostatic shaker Biosan ES-20 with slow stirring at 37 °C for 5 h. An aliquot was taken from the incubation medium every hour, centrifuged for 5 min (1600× g), and the degree of hemolysis was determined by the hemoglobin content in the supernatant on a ThermoSpectromic Genesys 20 spectrophotometer (Thermo Fisher Scientific, Waltham, MA, USA) at 524 nm. The percentage of hemolysis was calculated in relation to the complete hemolysis of the sample. Each experiment was designed with 4–8 replicates. Statistical data processing and charting were performed using the Microsoft Office Excel 2007 software package (Microsoft, Redmond, WA, USA). The data represent the mean ± SE.
Figure 4 Effect of unsymmetrical disulfides and Trolox (T) at a concentration of 1 μM on the level of H2O2-induced hemolysis of erythrocytes after 1–5 h of incubation.

[2] = Antioxidant activity: inhibition of lipid peroxidation (TBA-RS) in brain homogenates; set-up: species or system mice; settings: 100 μM and 1 mM, 1 h after initiation of LPO (ascorbate/Fe2+)
Method: The antioxidant activity of monoterpenylhetaryl disulfides was evaluated for their in vitro ability to inhibit lipid peroxidation (LPO) processes in the brain lipids of laboratory mice. The brain was removed and homogenized (10%) in physiological saline (pH = 7.4) and centrifuged for 10 min. Then, an aliquot of the supernatant (S1) was taken, into which the test compounds were added as solutions in ethanol (final concentration of 100 μM and 1 mM). After 30 min, LPO was initiated by adding a freshly prepared solution of FeSO4 and ascorbic acid. Then, the test samples were incubated for one hour at 37 °C with slow stirring in a thermostatic Biosan ES-20 shaker (Biosan, Riga, Latvia). The concentration of LPO secondary products reacting with 2-thiobarbituric acid (thiobarbituric acid reactive substances, TBA-RS) was determined using ThermoSpectromic Genesys 20 spectrophotometer (Thermo Fisher Scientific, Waltham, MA, USA) at λ = 532 nm, the extinction coefficient 1.56 × 10^5 M^−1cm^−1 was used for calculations.
Figure 2 Effect of unsymmetrical disulfides and Trolox (T) at concentrations of 100 μM and 1 mM on the content of TBA-RS in the brain homogenate in an hour after the initiation of LPO (ascorbate/Fe^2+ initiators). C—control sample containing no test compounds; I—intact sample in which LPO was not initiated.

P. aeruginosa ATCC 27853 = assay: Antibacterial MIC, broth microdilution (EUCAST); format: cell-based, Pseudomonas aeruginosa; settings: Pseudomonas aeruginosa, ATCC27853; 24 h, Mueller-Hinton broth
Method: (§2) Minimum inhibitory concentrations (MICs) of compounds was determined by the broth microdilution assay in 96-well plates (Eppendorf, Hamburg, Germany) according to the EUCAST rules for antimicrobial susceptibility testing in full Mueller-Hinton broth (MH). The concentrations of compounds to be tested ranged from 1 to 2048 µg/mL. The MIC was determined as the lowest concentration of an antibiotic for which no visible bacterial growth could be observed after 24 h of incubation.

in vitro = settings: dog
[3] = system: Candida albicans 703 clinical isolate; assay: Antifungal MIC, broth microdilution (CLSI M27-A3); settings: Candida albicans, 24 h, read-out: MIC C. albicans 703 Clinical Isolate
[4] = system: S. aureus ATCC 29213 (MSSA); assay: Antibacterial MIC, broth microdilution (EUCAST); format: cell-based, Staphylococcus aureus; settings: Staphylococcus aureus, 24 h, Mueller-Hinton broth
Method: as §2

[5] = system: S. aureus MRSA clinical isolate; assay: Antibacterial MIC, broth microdilution (EUCAST); format: cell-based, Staphylococcus aureus; settings: Staphylococcus aureus, MRSA; 24 h, Mueller-Hinton broth
Method: as §2

[6] = Cytotoxicity, MTT on EBL cells; settings: bovine, EBL cells (embryonic bovine lung)
Method: Cytotoxicity of compounds was determined using the microtetrazolium test (MTT) on EBL cells. The cells were cultured in DMEM—Dulbecco’s Modified Eagle’s Medium (Sigma Aldrich, St. Louis, MO, USA) supplemented with 10% FBS, 2 mM L-glutamine, 100 µg/mL penicillin and 100 µg/mL streptomycin. Cells were seeded in 96-well plates with the density of 3000 cells per well and left overnight to allow for the attachment. Cells were next cultured at 37 °C and 5% CO2 in the presence of compounds of interest at various concentrations from 1.25 to 160 µg/mL. After 24 h of cultivation the cells were subjected to MTT-assay. The formazan was solubilized by DMSO and the optical density was measured on Tecan Infinite 200Pro at 570 nm. The concentration required to inhibit cellular dehydrogenase activity by 50% (CC50 value) was calculated by using GraphPad Prism 6.0 software (GraphPad software, San Diego, CA, USA).

[7] = system: influenza virus A/Puerto Rico/8/34 (H1N1); assay: Antiviral cell protection assay in MDCK cells; format: cell-based; settings: H1N1, MDCK, 72 h
[8] = system: S. typhimurium TA98, TA100 and TA102 strains; assay: Mutagenicity in the Ames test (spot-test); format: cell-based, Salmonella typhimurium; settings: strain in which mutagenicity was found; NF = not found
Method: The mutagenicity of compounds was evaluated in the Ames test with S. typhimurium TA98, TA100 and TA102 strains as described in [38]. The spot-test modification has been applied to avoid false-negative results driven with antibacterial activity of compounds. The tested compound was considered to be mutagenic if the number of revertant colonies increased more than 2 times close to the filter paper with compound.

[9] = system: red blood cells from laboratory mice; assay: Erythrotoxicity (hemolytic activity); format: cell-based; settings: 100 μM, 1, 3 and 5 h of incubation
Method: No significant hemolytic activity was detected at a concentration of 1 μM (Figure 3B).
as §1
Figure 3 Hemolytic activity of unsymmetrical disulfides at the concentration of 100 μM (A) and 1 μM (B) after 1, 3 and 5 h of incubation.

Row | SMILES | membrane-protective activity, in words [1] | antioxidant activity (inhibition of oxidation of brain lipids), in words [2] | MIC (P. aeruginosa ATCC 27853) [µg/mL] | CC50 (in vitro) [µM] | MIC [3] [µg/mL] | MIC [4] [µg/mL] | MIC [5] [µg/mL] | CC50 at 24 h [6] [µg/mL] | IC50 [7] [µM] | Mutagenicity in the Ames Test [8] | hemolytic activity (erythrotoxicity), in words [9]
1 | COC(=O)c1cccnc1SS[C@H]1C[C@H]2C[C@@H]([C@@H]1CO)C2(C)C [Compound 3c, Methyl 2-(((1S,2R,3S,5R)-2-(hydroxymethyl)-6,6-dimethylbicyclo[3.1.1]hept-3-yl)disulfanyl)pyridine-3-carboxylate] | most active | highest antioxidant activity | 1020 (≈ 2900 µM) | > 283 | 1020 (≈ 2900 µM) | 64 (≈ 181 µM) | 32 (≈ 90.5 µM) | 8.1 (≈ 22.9 µM) | 255 ± 31 |  | 
2 | CC(C)[C@@H]1CC[C@@H](C)C[C@@H]1SSc1nc2ccccc2s1 [Compound 1a, 2-(((1S,2S,5R)-2-isopropyl-5-methylcyclohexyl)disulfanyl)benzo[d]thiazole] |  |  | 16 (≈ 47.4 µM) | 36 ± 3 | 512 (≈ 1520 µM) | 16 (≈ 47.4 µM) | 16 (≈ 47.4 µM) | 11.7 (≈ 34.7 µM) | 5 ± 1 | TA 100 | Low hemolytic activity
3 | Cc1cc(C)nc(SS[C@H]2C[C@H](C)CC[C@H]2C(C)C)n1 [Compound 1b, 2-(((1S,2S,5R)-2-isopropyl-5-methylcyclohexyl)disulfanyl)-4,6-dimethylpyrimidine] |  |  | 32 (≈ 103 µM) | 29 ± 2 | 512 (≈ 1650 µM) | 16 (≈ 51.5 µM) | 32 (≈ 103 µM) | 14 (≈ 45.1 µM) | 13 ± 2 | TA 102 | 
4 | COC(=O)c1cccnc1SSC[C@@H]1[C@@H](O)C[C@H]2C[C@@H]1C2(C)C [Compound 4c, Methyl 2-((((1S,2S,3S,5R)-3-hydroxy-6,6-dimethylbicyclo[3.1.1]heptan-2-yl)methyl)disulfanyl)pyridine-3-carboxylate] | most active | highest antioxidant activity | > 1020 | 40 ± 2 | 1020 (≈ 2900 µM) | 1020 (≈ 2900 µM) | > 1020 |  | 34 ± 4 |  | 

— PMC9416111, “Synthesis and Biological Activity of Unsymmetrical Monoterpenylhetaryl Disulfides” (Molecules, 2022)
